# According to paper PMC5612656, “In vitro and in vivo effects of 2,4 diaminoquinazoline inhibitors of the decapping scavenger enzyme DcpS: Context-specific modulation of SMN transcript levels” (PLoS ONE, 2017):
# Test system: spinal cord transcriptome
# Experiment: RNA-Seq of spinal cord tissue from 2B/- and 2B/+ mice
# Type: in vivo, mouse
# Settings: 2B-Veh vs 2B-RG3039
smiles,measurement,setting,value
Nc1nc(N)c2c(OCC3CCN(Cc4c(Cl)cccc4Cl)CC3)cccc2n1 [RG3039],log2(fold-change) Slc16a3,,-0.7903
same,log2(fold-change) Slc16a9,,-0.6931
same,log2(fold-change) Slc24a4,,-0.7011
same,log2(fold-change) Slc25a34,,-1.809
same,log2(fold-change) Slc38a5,,1.057
same,log2(fold-change) Slc43a2,,-0.4622
same,log2(fold-change) Smim3,,-1.398
same,log2(fold-change) Sox7,,0.9813
same,log2(fold-change) Sspo,,-0.7538
same,log2(fold-change) Steap3,,0.5769
same,log2(fold-change) Sult1a1,,-1.637
same,log2(fold-change) T2,,-0.674
same,log2(fold-change) Thbd,,0.6475
same,log2(fold-change) Tjap1,,-0.5932
same,log2(fold-change) Tmem52,,-2.209
same,log2(fold-change) Tmem82,,-2.075
same,log2(fold-change) Tnc,,1.175
same,log2(fold-change) Tnfrsf11b,,0.7466
same,log2(fold-change) Tnfsf10,,1.316
same,log2(fold-change) Top2a,,0.5734
same,log2(fold-change) Trim17,,-0.4978
same,log2(fold-change) Trim63,,-1.544
same,log2(fold-change) Txnip,,-1.514
same,log2(fold-change) Ube2c,,0.4464
same,log2(fold-change) Uhrf1,,0.8234
same,log2(fold-change) Vegfc,,0.6909
same,log2(fold-change) Wfdc18,,-1.041
same,log2(fold-change) Wnt7a,,1.48
same,log2(fold-change) Zbtb16,,-1.136
same,log2(fold-change) Zfand4,,-0.6603
same,log2(fold-change),gene 1110032A03Rik,-0.2821
same,log2(fold-change),gene Acsbg1,-0.2673
same,log2(fold-change),gene Adam15,-0.3484
same,log2(fold-change),gene Adi1,-0.4121
same,log2(fold-change),gene Adra1b,0.2729
same,log2(fold-change),gene Aff1,-0.2665
same,log2(fold-change),gene Ak3,-0.3763
same,log2(fold-change),gene Aldh1l1,-0.3854
same,log2(fold-change),gene Aldoc,-0.3499
same,log2(fold-change),gene Amz1,0.2752
same,log2(fold-change),gene Ap5z1,-0.356
same,log2(fold-change),gene Aqp11,-0.2575
same,log2(fold-change),gene Arsk,-0.2986
same,log2(fold-change),gene B3gnt9,-0.2654
same,log2(fold-change),gene Bahd1,0.2771
same,log2(fold-change),gene Boc,-0.2865
same,log2(fold-change),gene Calr,0.1683
same,log2(fold-change),gene Ccdc41os1,-0.2491
same,log2(fold-change),gene Ccdc117,0.2458
same,log2(fold-change),gene Ccnyl1,0.3378
same,log2(fold-change),gene Cdc25a,0.2456
same,log2(fold-change),gene Clmp,0.2336
same,log2(fold-change),gene Cntfr,-0.3422
same,log2(fold-change),gene Col9a3,0.1971
same,log2(fold-change),gene Cpt1c,-0.278
same,log2(fold-change),gene Crabp1,0.2782
same,log2(fold-change),gene Cryz,-0.1892
same,log2(fold-change),gene Daam2,-0.2024
same,log2(fold-change),gene Darc,0.1786
same,log2(fold-change),gene Decr1,-0.3016
same,log2(fold-change),gene Dnm2,-0.2166
same,log2(fold-change),gene Efnb3,-0.3581
same,log2(fold-change),gene Elmo2,0.364
same,log2(fold-change),gene Eltd1,-0.2627
same,log2(fold-change),gene Fkbp10,0.3165
same,log2(fold-change),gene Fmnl3,0.3298
same,log2(fold-change),gene Foxo3,-0.2832
same,log2(fold-change),gene Gpt2,-0.2642
same,log2(fold-change),gene Gstt1,-0.358
same,log2(fold-change),gene Hapln2,-0.2887
same,log2(fold-change),gene Hmgcr,0.3374
same,log2(fold-change),gene Hopx,0.2486
same,log2(fold-change),gene Hsdl2,-0.1941
same,log2(fold-change),gene Itfg3,-0.4076
same,log2(fold-change),gene Ivd,-0.3584
same,log2(fold-change),gene Kctd3,-0.3771
same,log2(fold-change),gene Kctd15,0.2608
same,log2(fold-change),gene Kpna2,0.269
same,log2(fold-change),gene Lpcat1,0.2395
same,log2(fold-change),gene Lrrc1,-0.4303
same,log2(fold-change),gene Lxn,0.285
same,log2(fold-change),gene Maged2,0.2097
same,log2(fold-change),gene Megf9,-0.283
same,log2(fold-change),gene Megf11,0.3115
same,log2(fold-change),gene Mmp15,0.2397
same,log2(fold-change),gene Msi1,0.3899
same,log2(fold-change),gene Mterfd3,-0.3526
same,log2(fold-change),gene Ngef,0.3246
same,log2(fold-change),gene Nid1,0.3048
same,log2(fold-change),gene Npl,0.2963
same,log2(fold-change),gene Nr2f1,0.3426
same,log2(fold-change),gene Nrbp2,-0.2827
same,log2(fold-change),gene Nrep,0.3402
